From ChEMBL document CHEMBL4837226, “Discovery of pyrrole derivatives for the treatment of glioblastoma and chronic myeloid leukemia” (Eur J Med Chem, 2021) come the findings set out here.

One assay has as its system MCF7. Nature of the assay: Cytotoxicity against human MCF7 cells assessed as cell growth inhibition measured after 96 hrs. The conditions noted are these: MCF7, 96 h. Format: functional, cell-based.
Assay [1] concerns the target T1, Tubulin (Homo sapiens) (UniProt P68371+Q9H4B7+P0DPH7+P68366+Q13509+Q71U36+P04350+Q3ZCM7+P07437+P68363+Q9BQE3+Q6PEY2+Q13885+Q9BVA1+Q9BUF5). Nature of the assay: Inhibition of [3H]Colchicine binding to tubulin (unknown origin) at 5 uM measured after 10 mins by DEAE-Cellulose filter method relative to control. Type of assay: protein-complex assay.
In the next assay the target is Tubulin. Nature of the assay: Inhibition of tubulin polymerization (unknown origin) assessed as reduction in tubulin assembly preincubated for 15 mins followed by GTP addition by spectrophotometric method. Type of assay: protein-complex assay, Homo sapiens.
For the next assay, the system named is KU812 cell line. Nature of the assay: Cytotoxicity against Bcr-Abl expressing human KU812 cells assessed as cell growth inhibition measured after 48 hrs by MTT assay. Type of assay: functional, cell-based. Particulars: KU812, 48 h. (In general: Formazan colour is commonly taken as a measure of viable cells.)
The test system of assay [2] is KBM5. Nature of the assay: Cytotoxicity against imatinib mesylate resistant wild-type human KBM5 cells expressing T315I mutant assessed as cell growth inhibition measured after 48 hrs by MTT assay. Particulars: KBM5, 48 h. Type of assay: functional, cell-based.
Assay [3] relates to KBM5. Nature of the assay: Cytotoxicity against Imatinib mesylate sensitive wild-type human KBM5 cells assessed as cell growth inhibition measured after 48 hrs by MTT assay. Type of assay: functional, cell-based. Particulars: KBM5, 48 h.
Another assay has as its system SW-620. Nature of the assay: Cytotoxicity against human SW-620 cells assessed as cell growth inhibition measured after 48 hrs by XTT dye based assay. Type of assay: functional. Particulars: SW-620, 48 h.
Assay [4] in a line: Cytotoxicity against human U343MG cells assessed as cell growth inhibition by measuring maximum efficacy measured after 72 hrs by MTS colorimetric assay relative to control. Type of assay: functional. The conditions noted are these: U-343MG.
Assay [5] has as its system U-87 MG. Nature of the assay: Cytotoxicity against human U-87MG cells assessed as cell growth inhibition measured after 48 hrs by MTS colorimetric assay. Type of assay: functional, cell-based, U-87MG ATCC.
Assay [6] in a line: Cytotoxicity against human U-343MG cells assessed as cell growth inhibition measured after 72 hrs by MTS colorimetric assay. Type of assay: functional, cell-based.
The subject of the next assay is SW480. Nature of the assay: Cytotoxicity against human SW480 cells assessed as cell growth inhibition measured after 48 hrs by XTT dye based assay. Format: functional. Particulars: SW480, 48 h.
Assay [7] has as its system U-87 MG. Nature of the assay: Cytotoxicity against human U-87MG cells assessed as cell growth inhibition by measuring maximum efficacy measured after 48 hrs by MTS colorimetric assay relative to control. Format: functional, U-87MG ATCC.
Assay [8] addresses T1, Tubulin (Homo sapiens). Nature of the assay: Inhibition of [3H]Colchicine binding to tubulin (unknown origin) at 1 uM measured after 10 mins by DEAE-Cellulose filter method relative to control. Format: protein-complex assay.

Structures can show the parent of a compound that is named as a salt.

In general, IC50 refers to the midpoint of a concentration-inhibition curve. Broadly, the inhibition is the change of the read-out against control, counted positive when it falls. High values mean a strong effect, low ones a weak effect. For the compound `COc1cc(C(=O)c2cn(-c3cccc(C)c3)cc2-c2ccco2)cc(OC)c1OC`, the results for the IC50 with MCF7 and at Tubulin were 0.023 µM and 0.56 µM, respectively. At Tubulin (Homo sapiens) [1], the inhibition worked out at 80%.
In the case of `COc1cc(C(=O)c2cn(-c3cccc(C)c3)cc2-c2ccncc2)cc(OC)c1OC`, the IC50 in the assay on MCF7 is 0.065 µM; on Tubulin it was 0.59 µM. For the same compound, the inhibition on Tubulin (Homo sapiens) [1] came out at 88%.
Turning to `Cc1ccc(C(=O)Nc2ccc(CN3CCN(C)CC3)c(C(F)(F)F)c2)cc1C#Cc1cnc2cccnn12` [PONATINIB], the values for the IC50 in the assay with KU812 cell line, in the assay with KBM5 [2] and in the assay on KBM5 [3] were 0.0085 µM, 0.0106 µM and 0.0102 µM, respectively.
On to `COc1cc(C(=O)c2cn(-c3ccc(F)cc3)cc2-c2ccncc2)cc(OC)c1OC`, for which the 50% inhibitory concentration (IC50) in the assay with SW-620 was 0.0665 µM; in the assay with KU812 cell line, 0.0124 µM; in the assay with U-87 MG [5], 0.0391 µM; in assay [6], 0.432 µM; in the assay with MCF7 it was 0.009 µM; with SW480, 0.934 µM. The half-maximal inhibitory concentration (IC50) in the assay on KBM5 [2] was 0.0131 µM; with KBM5 [3], 0.0122 µM; at Tubulin it was 0.58 µM. Also, the Emax turned out to be 75.1% in assay [4] and 56% in the assay on U-87 MG [7]. This compound also came in with an inhibition on Tubulin (Homo sapiens) [1] of 87%.
For the compound `COc1cc(C(=O)c2cn(-c3ccc(C)cc3)cc2-c2ncco2)cc(OC)c1OC`, the inhibition at Tubulin (Homo sapiens) [8] is 45%; at Tubulin (Homo sapiens) [1], 90%. Further, the IC50 in the assay on MCF7 amounted to 0.042 µM; on Tubulin, 0.72 µM.
Take `COc1cc(C(=O)c2cn(-c3ccc(C)cc3)cc2-c2cccnc2)cc(OC)c1OC`: the inhibition on Tubulin (Homo sapiens) [8] was 58%; on Tubulin (Homo sapiens) [1], 92%. For the same compound, the half-inhibitory concentration (IC50) in the assay with MCF7 came out at 0.019 µM; on Tubulin, 0.64 µM.
With `COc1cc(C(=O)c2cn(-c3cccc(C)c3)cc2-c2cccnc2)cc(OC)c1OC`, the half-maximal inhibitory concentration (IC50) in the assay on MCF7 was 0.052 µM; on Tubulin, 0.74 µM. The inhibition on Tubulin (Homo sapiens) [1] turned out to be 78%.
For `COc1cc(C(=O)c2cn(-c3ccc(C)cc3)cc2-c2ccoc2)cc(OC)c1OC`, the inhibition was found to be 71% on Tubulin (Homo sapiens) [8] and 95% at Tubulin (Homo sapiens) [1]. Besides, the IC50 was found to be 0.018 µM in the assay with MCF7 and 0.47 µM at Tubulin.
As to `COc1cc(C(=O)c2cn(-c3ccc(C)cc3)cc2-c2ccncc2)cc(OC)c1OC`, the inhibition stood at 70% at Tubulin (Homo sapiens) [8] and 94% at Tubulin (Homo sapiens) [1]. Also, the IC50 was determined as 0.009 µM in the assay with MCF7 and 0.44 µM at Tubulin.
On the same counts, the results for `COc1cc(C(=O)c2cn(-c3ccc(F)cc3)cc2-c2ccoc2)cc(OC)c1OC` are 71%, 87%, 0.015 µM and 0.38 µM.
With `COc1cc(C(=O)c2cn(-c3cccc(C)c3)cc2-c2ccccn2)cc(OC)c1OC`, the 50% inhibitory concentration (IC50) stood at 0.14 µM in the assay with MCF7 and 0.78 µM on Tubulin. The same compound came in with an inhibition at Tubulin (Homo sapiens) [1] of 66%.
Turning to `COc1cc(C(=O)c2cn(-c3ccc(C)cc3)cc2-c2nccs2)cc(OC)c1OC`, the inhibition on Tubulin (Homo sapiens) [8] was determined as 63%; at Tubulin (Homo sapiens) [1], 91%. Moreover, the values for the half-inhibitory concentration (IC50) in the assay on MCF7 and at Tubulin were 0.014 µM and 0.56 µM, respectively.
For `COc1cc(C(=O)c2cn(-c3ccc(C)cc3)cc2-c2ccco2)cc(OC)c1OC`, in that order: 71%, 92%, 0.022 µM and 0.46 µM.
In the case of `COc1cc(C(=O)c2cn(-c3cccc(C)c3)cc2-c2ccoc2)cc(OC)c1OC`, the results for the inhibition on Tubulin (Homo sapiens) [8] and at Tubulin (Homo sapiens) [1] were 64% and 87%, respectively. Also, the results for the IC50 in the assay on MCF7 and on Tubulin were 0.021 µM and 0.42 µM, respectively.
With `COc1cc(C(=O)c2cn(-c3cccc(C)c3)cc2-c2nccs2)cc(OC)c1OC`, the IC50 in the assay on MCF7 is 0.02 µM; on Tubulin, 0.49 µM. Also, the inhibition at Tubulin (Homo sapiens) [1] amounted to 83%.
Turning to `Cc1ccc(NC(=O)c2ccc(CN3CCN(C)CC3)cc2)cc1Nc1nccc(-c2cccnc2)n1` [IMATINIB MESYLATE], the half-maximal inhibitory concentration (IC50) was 0.311 µM in the assay on KU812 cell line, 0.311 µM in the assay on KBM5 [2] and 0.152 µM in the assay on KBM5 [3].
Consider `COc1cc(C(=O)c2cn(-c3ccc(F)cc3)cc2-c2ccco2)cc(OC)c1OC`, for which the half-inhibitory concentration (IC50) in the assay with MCF7 came out at 0.017 µM; on Tubulin it was 0.47 µM. The inhibition on Tubulin (Homo sapiens) [1] was 82%.
On to `COc1cc(C(=O)c2cn(-c3ccc(F)cc3)cc2-c2nccs2)cc(OC)c1OC`, for which the IC50 with MCF7 was determined as 0.022 µM; at Tubulin, 0.78 µM. Also, the inhibition at Tubulin (Homo sapiens) [1] came out at 69%.
On the same counts, the results for `COc1cc(C(=O)c2cn(-c3ccc(F)cc3)cc2-c2ncco2)cc(OC)c1OC` are 0.093 µM, 1.4 µM and 68%.
Turning to `COc1cc(C(=O)c2cn(-c3ccc(F)cc3)cc2-c2ccsc2)cc(OC)c1OC`, the IC50 turned out to be 0.015 µM with MCF7 and 0.55 µM on Tubulin. At Tubulin (Homo sapiens) [1], the inhibition was determined as 76%.
For `COc1cc(C(=O)c2cn(-c3cccc(C)c3)cc2-c2ncco2)cc(OC)c1OC`, in that order: 0.075 µM, 0.72 µM and 77%.
On the same counts, the results for `COc1cc(C(=O)c2cn(-c3ccc(C)cc3)cc2-c2ccccn2)cc(OC)c1OC` are 0.036 µM, 0.46 µM and 83%.
Turning to `COc1cc(C(=O)c2cn(-c3ccc(F)cc3)cc2-c2ccccn2)cc(OC)c1OC`, the IC50 came to 0.073 µM in the assay on MCF7 and 0.82 µM on Tubulin. Besides, at Tubulin (Homo sapiens) [1], the inhibition was found to be 44%.
For `COc1cc(C(=O)c2cn(-c3ccc(F)cc3)cc2-c2cccnc2)cc(OC)c1OC`, in that order: 0.039 µM, 0.56 µM and 80%.
Take `COc1cc(C(=O)c2cn(-c3cccc(C)c3)cc2-c2ccsc2)cc(OC)c1OC`: the results for the IC50 in the assay with MCF7 and at Tubulin were 0.065 µM and 0.52 µM, respectively. Further, at Tubulin (Homo sapiens) [1], the inhibition is 74%.
